In paper PMC5085761 (International Journal of Molecular Sciences, 2016):

How the values were obtained:
[1] = molecular target: T1, OCT2 (Homo sapiens, UniProt O15244); test: [14C]fluciclovine uptake by OCT2-expressing cells; assay type: in vitro ADME; conditions: OCT2 cells vs mock cells
T1 construct: host or cells: HEK293
T1 sequence (O15244 1-555): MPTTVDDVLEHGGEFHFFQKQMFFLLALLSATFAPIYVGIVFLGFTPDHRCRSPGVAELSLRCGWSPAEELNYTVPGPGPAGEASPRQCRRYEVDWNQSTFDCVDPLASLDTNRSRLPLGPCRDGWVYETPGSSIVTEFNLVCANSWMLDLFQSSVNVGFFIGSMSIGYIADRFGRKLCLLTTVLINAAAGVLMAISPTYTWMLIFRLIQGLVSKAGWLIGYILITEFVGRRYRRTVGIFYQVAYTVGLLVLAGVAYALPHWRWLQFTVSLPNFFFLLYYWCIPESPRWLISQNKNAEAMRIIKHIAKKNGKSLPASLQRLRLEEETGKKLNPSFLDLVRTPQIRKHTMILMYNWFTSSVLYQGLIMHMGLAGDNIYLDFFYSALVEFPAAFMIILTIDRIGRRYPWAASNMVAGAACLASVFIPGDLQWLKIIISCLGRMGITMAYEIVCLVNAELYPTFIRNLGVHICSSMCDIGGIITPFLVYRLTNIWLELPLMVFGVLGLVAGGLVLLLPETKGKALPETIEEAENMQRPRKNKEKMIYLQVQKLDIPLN

[2] = tested on: LLC-PK1 monolayer model; test: Inhibition study of [14C]fluciclovine apical-to-basal transport, LLC-PK1 monolayer model
From the text: Natural and synthetic amino acids were used as inhibitors: MeAIB (2-(methylamino)-isobutyric acid, for system A in the presence of Na^+); Thr (L-threonine, for system ASC in the presence of Na^+); and BCH (2-aminobicyclo[2,2,1]heptane-2-carboxylic acid, for system L in the absence of Na^+).

[3] = molecular target: T2, OAT1 (Homo sapiens, UniProt Q4U2R8); test: Inhibition of tracer uptake in OAT1-expressing cells; assay type: in vitro ADME; conditions: OAT1, tracer [14C]PAH 1 µM
T2 construct: host or cells: Flp-in-293
T2 sequence (Q4U2R8 1-563): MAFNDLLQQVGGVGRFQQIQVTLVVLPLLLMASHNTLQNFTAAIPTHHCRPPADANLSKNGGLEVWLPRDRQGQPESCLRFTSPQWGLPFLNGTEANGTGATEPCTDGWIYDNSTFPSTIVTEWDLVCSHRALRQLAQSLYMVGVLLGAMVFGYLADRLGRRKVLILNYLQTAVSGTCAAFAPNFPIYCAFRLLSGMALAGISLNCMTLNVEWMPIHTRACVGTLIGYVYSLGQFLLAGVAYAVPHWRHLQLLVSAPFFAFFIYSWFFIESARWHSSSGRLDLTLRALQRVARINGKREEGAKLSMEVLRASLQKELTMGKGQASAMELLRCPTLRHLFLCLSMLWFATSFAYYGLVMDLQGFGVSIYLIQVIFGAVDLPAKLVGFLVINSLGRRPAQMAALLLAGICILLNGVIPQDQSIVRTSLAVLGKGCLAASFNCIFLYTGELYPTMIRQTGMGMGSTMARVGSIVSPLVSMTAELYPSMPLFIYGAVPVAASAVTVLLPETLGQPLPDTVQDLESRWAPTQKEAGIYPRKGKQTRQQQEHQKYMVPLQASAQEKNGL
Experimental: (§1) For the SLC transporter experiments, Mock Flp-in-293 cells (Flp/mock), OAT1-expressing Flp-in-293 cells (Flp/OAT1), mock HEK293 cells (HEK/mock), and OATP1B3-expressing HEK293 cells (HEK/OATP1B3) were obtained from Kanazawa University (Ishikawa, Japan). Briefly, Flp-in-293 and HEK293 cells were transfected with the appropriate plasmid DNA and selected using antibiotics (hygromycin or G-418). All cell lines were cultured in DMEM (Life Technologies Japan) supplemented with 10% (v/v) fetal bovine serum (American Type Culture Collection) and antibiotics (100 U/mL penicillin and 100 μg/mL streptomycin (Life Technologies Japan) for mock cells, 0.2 mg/mL hygromycin for Flp/OAT1 cells, and 1.2 mg/mL G-418 (Roche Diagnostics K.K., Tokyo, Japan) for HEK/OATP1B3 cells) at 37 °C under an atmosphere containing 5% CO2. […]
(§2) The experiments were performed as described previously, with minor modifications. […] The cells were lysed in 0.3 mL of 0.1N NaOH at room temperature, after which the radioactivity of each aliquot was measured as described above. The protein concentration of the cell lysate was determined with a VersaMax microplate reader (Molecular Devices Japan K.K., Osaka, Japan) or SpectraMax i3x (Molecular Devices Japan K.K.; only for OATP1B1) using a BCA Protein Assay Kit (Thermo Fisher Scientific, Kanagawa, Japan). Tracer uptake was expressed as pmol/mg protein. […]

[4] = molecular target: T3, OAT3 (Homo sapiens, UniProt Q8TCC7); test: Inhibition of tracer uptake in OAT3-expressing cells; assay type: in vitro ADME
T3 construct: host or cells: HEK293
T3 sequence (Q8TCC7 1-542): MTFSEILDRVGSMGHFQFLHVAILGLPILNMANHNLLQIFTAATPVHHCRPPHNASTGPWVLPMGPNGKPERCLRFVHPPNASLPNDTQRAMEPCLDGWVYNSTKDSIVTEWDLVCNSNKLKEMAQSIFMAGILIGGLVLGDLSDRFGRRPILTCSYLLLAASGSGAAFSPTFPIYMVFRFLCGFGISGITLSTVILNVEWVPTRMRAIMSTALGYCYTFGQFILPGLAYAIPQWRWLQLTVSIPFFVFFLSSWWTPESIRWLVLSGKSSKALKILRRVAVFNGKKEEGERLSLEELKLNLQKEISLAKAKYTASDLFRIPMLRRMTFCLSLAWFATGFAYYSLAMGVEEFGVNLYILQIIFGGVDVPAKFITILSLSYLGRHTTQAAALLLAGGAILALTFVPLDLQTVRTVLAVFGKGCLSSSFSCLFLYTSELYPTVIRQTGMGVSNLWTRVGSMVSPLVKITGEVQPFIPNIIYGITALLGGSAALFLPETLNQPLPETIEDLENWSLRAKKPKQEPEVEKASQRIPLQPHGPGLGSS
Experimental: as §1, §2

## N[14C]1(C(=O)O)CC(F)C1 (stereo not drawn) [[^14C]fluciclovine, trans-1-amino-3-fluoro[1-^14C]cyclobutanecarboxylic acid]
[1]
  drug transporter-mediated uptake: negligible
[2]; Na+-free buffer, 10 µM, 120 min
  apical-to-basal transport rate, % of the control in Na+ buffer: 58.8%
[2]; control in Na+-free buffer subtracted from control in Na+ buffer
  contribution of Na+-dependent transport to the total penetration amount: 41.2%

## N[C@]1(C(=O)O)C[C@@H](F)C1 [fluciclovine]
[3]
  IC50: 3.98 ± 1.77 mM
[4]; OAT3, tracer [3H]ES 1 µM, 100 µM–10 mM fluciclovine
  inhibition by fluciclovine at millimolar concentrations observed: not
[4]; in the presence of 10 mM fluciclovine
  OAT3-mediated ES uptake: increased
